Target: T1, CFTR (Homo sapiens, UniProt P13569, DEL508-508)
T1 construct: Primary CF airway epithelial cells were obtained from the UNC Cystic Fibrosis Tissue Procurement and Cell Culture Core; host or cells: primary CF airway epithelial cells
Assay: Equivalent current assay in Primary CF airway epithelial cells (NAUC)
Format: cell-based
Conditions: 24 h, normalized to VX809 (3 μM) positive control; for Nauc @ 3 μM: 3 μM test compound; for Nauc @ 10 μM: 10 μM test compound
Method: Primary CF airway epithelial cells were obtained from the UNC Cystic Fibrosis Tissue Procurement and Cell Culture Core. The cells are grown at 37° C. in a Heracell 150i incubator using growth media (BEGM, Fischer). Cells were then transferred to differentiation media (ALI, UNC) for a minimum of 4 weeks on coated Costar snapwells. Two days before the Ussing assay the mucus on the apical surface of the cells was aspirated after incubating with 200 μL of differentiation Media for at least thirty (30) minutes. One day before the Ussing assay test compounds were added to the basolateral surface of the cells at various test concentrations dissolved in DMSO. Duplicate wells were prepared giving a n=3 or n=4 protocol.
Cells were treated for 24 hours with various combinations and concentrations of the test articles, reference standard (3 μM VX809, positive control). Compounds stock solutions were prepared in DMSO and diluted 1/1000 into ALI media to their final assay concentration. Cells were treated with combination solutions (2 mL of each dilution) and incubated at 37° C. for 24 h.
For the equivalent current assay, cells on four Transwell (24-well) plates were treated. Each Transwell plate was filled with 200 μl of HBS on the apical surface and 2 ml on the basolateral surface. Plates were placed horizontally in a heated mount at 37° C., and equilibrated for several minutes. Resting current was measured for 15 min and then blocked by the apical addition of 5 μM benzamil. After 20 min, 10 μM forskolin and 1 μM VX770 were added to both the apical and basolateral side to stimulate CFTR. An increase in chloride current is seen as an upward deflection of the trace. After another 30 min, CFTR-172 (a CFTR inhibitor, 20 μM) and/or bumetanide (20 uM) was added to block CFTR mediated chloride current.
The raw data, current vs. time for the Ussing chamber (sampling interval: 10 s) and voltage vs. time and resistance vs. time for the equivalent current assay (sampling interval: 5 minutes) were transferred to Excel (Microsoft Office Professional, version 14.0.7106.5003) for analysis. CFTR specific current was measured as the average amplitude of the increase in current elicited upon addition forskolin and ending upon addition of the CFTR channel specific blocker CFTR-172. This average is equivalent to the sum of the average forskolin activated and the average VX770-potentiated currents. The average current measured in vehicle (0.1% DMSO) treated cells, Iv, was subtracted from the current for the test article, ITA, or from the corrector reference standard VX809 (3 uM ISTD. For replicate measurements, the average vehicle subtracted response for the test article, was normalized to the average vehicle subtracted inhibitor response of the reference corrector VX809 (3 μM). INSC=(ITA−IV)(ave)/(ISTD−IV)(ave) (Equation 1)
A second endpoint, for the equivalent current assay, evaluated was NAUC, the normalized area under the curve (AUC) measuring the response after addition of forskolin and VX770 to the time point right before the addition of the CFTR inhibitor. The AUC is effectively the average response multiplied by the duration of the response. The AUC of the test article, AUCTA was then corrected by subtracting the average vehicle response, AUCV,ave over the same time range, and normalized as for the inhibitor-sensitive current to the difference of the corrector reference standard VX809 (3 μM VX809r,ave and the vehicle response: NAUCTA=[AUCTA−AUCV,ave]/[AUCVx809r,ave−AUCV,ave] (Equation 2).
The normalized value for DMSO is 0.0 and for VX-809 alone is 1.0. Combinations of compounds with VX-809 that give normalized values greater than 1.0 show activity in the combination assay. A value of 2 means the test compound doubles the effect to VX-809 alone.
Experiments were run with a minimum of n=4 replicates per concentration. […]

T1 sequence (P13569 with tags, fused parts or gaps DEL508-508): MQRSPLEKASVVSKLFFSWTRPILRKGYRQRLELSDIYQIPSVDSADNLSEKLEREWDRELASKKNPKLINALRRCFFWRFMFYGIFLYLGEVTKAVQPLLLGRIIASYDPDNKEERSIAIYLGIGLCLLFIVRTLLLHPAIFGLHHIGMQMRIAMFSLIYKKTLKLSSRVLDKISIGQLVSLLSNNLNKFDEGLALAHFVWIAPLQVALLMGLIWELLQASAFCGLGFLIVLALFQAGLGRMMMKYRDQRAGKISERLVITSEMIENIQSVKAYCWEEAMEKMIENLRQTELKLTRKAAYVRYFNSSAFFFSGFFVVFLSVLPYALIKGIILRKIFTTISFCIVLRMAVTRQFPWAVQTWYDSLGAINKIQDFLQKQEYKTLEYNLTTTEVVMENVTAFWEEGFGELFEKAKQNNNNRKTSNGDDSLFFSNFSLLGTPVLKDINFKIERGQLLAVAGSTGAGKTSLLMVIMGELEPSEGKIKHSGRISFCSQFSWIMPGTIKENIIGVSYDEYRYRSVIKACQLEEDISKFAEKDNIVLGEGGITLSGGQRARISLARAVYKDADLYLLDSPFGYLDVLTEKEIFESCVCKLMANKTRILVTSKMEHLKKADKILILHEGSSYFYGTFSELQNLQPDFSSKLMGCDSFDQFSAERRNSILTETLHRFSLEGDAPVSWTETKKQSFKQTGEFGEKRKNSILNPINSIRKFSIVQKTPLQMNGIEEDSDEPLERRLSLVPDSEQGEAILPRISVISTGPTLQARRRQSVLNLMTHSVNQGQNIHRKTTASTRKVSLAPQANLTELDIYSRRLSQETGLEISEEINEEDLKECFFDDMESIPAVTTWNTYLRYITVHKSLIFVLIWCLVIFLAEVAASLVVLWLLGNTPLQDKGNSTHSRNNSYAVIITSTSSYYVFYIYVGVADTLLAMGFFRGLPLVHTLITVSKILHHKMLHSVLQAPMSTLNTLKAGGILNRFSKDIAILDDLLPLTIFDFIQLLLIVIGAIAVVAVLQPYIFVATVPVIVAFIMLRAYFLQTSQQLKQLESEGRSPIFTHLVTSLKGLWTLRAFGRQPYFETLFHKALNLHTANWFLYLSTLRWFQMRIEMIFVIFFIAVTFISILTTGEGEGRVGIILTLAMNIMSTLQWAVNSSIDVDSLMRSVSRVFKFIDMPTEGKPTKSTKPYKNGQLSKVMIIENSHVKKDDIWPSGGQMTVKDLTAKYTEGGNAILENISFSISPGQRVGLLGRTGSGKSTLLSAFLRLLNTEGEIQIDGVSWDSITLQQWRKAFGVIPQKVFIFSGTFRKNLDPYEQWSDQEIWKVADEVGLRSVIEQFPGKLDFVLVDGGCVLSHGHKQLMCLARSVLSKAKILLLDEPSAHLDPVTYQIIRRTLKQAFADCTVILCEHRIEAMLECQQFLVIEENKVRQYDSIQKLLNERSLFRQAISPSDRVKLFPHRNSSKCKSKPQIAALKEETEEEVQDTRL

Compound | Nauc @ 3 μM | Nauc @ 10 μM
O=C1C2C3C[C@H](O)CN3C3(C(=O)Nc4c(Cl)cc(Cl)cc43)C2C(=O)N1c1cc(Cl)cc(Cl)c1 (single isomer, unassigned) [Example 46] | ++ (NAUC “++” refers to an observed NAUC 170-140% of positive control) | + (NAUC “+” refers to an observed NAUC <140% of positive control)
O=C1C2C3C[C@H](O)CN3C3(C(=O)Nc4ccc(C(F)(F)F)cc43)C2C(=O)N1c1cc(Cl)cc(Cl)c1 (single isomer, unassigned) [Example 50] | ++ (NAUC “++” refers to an observed NAUC 170-140% of positive control) | + (NAUC “+” refers to an observed NAUC <140% of positive control)
O=C1C2C3C[C@H](O)CN3C3(C(=O)Nc4c(Br)cc(Br)cc43)C2C(=O)N1c1cc(Cl)cc(Cl)c1 (single isomer, unassigned) [Example 51] | +++ (NAUC “+++” refers to an observed NAUC >170% of positive control) | ++ (NAUC “++” refers to an observed NAUC 170-140% of positive control)
CC12C(=O)N(c3cc(Cl)cc(Cl)c3)C(=O)C1C1(C(=O)Nc3c(Cl)cc(Cl)cc31)N1CCCC12 (single isomer, unassigned) [Example 54] | ++ (NAUC “++” refers to an observed NAUC 170-140% of positive control) | + (NAUC “+” refers to an observed NAUC <140% of positive control)
O=C1C2C3C[C@H](O)CN3C3(C(=O)Nc4c(Cl)cc(Cl)cc43)C2C(=O)N1c1cc(Br)cc(Br)c1 (single isomer, unassigned) [Example 56] | ++ (NAUC “++” refers to an observed NAUC 170-140% of positive control) | +++ (NAUC “+++” refers to an observed NAUC >170% of positive control)
O=C1C2C3C[C@H](NS(=O)(=O)c4ccccc4)CN3C3(C(=O)Nc4c(Cl)cc(Cl)cc43)C2C(=O)N1c1cc(Cl)cc(Cl)c1 (single isomer, unassigned) [Example 58] | ++ (NAUC “++” refers to an observed NAUC 170-140% of positive control) | +++ (NAUC “+++” refers to an observed NAUC >170% of positive control)
O=C1C2C3C[C@H](O)CN3C3(C(=O)Nc4ccc(C(F)(F)F)cc43)C2C(=O)N1c1cc(Cl)cc(Cl)c1 (single isomer, unassigned) [Example 61] | +++ (NAUC “+++” refers to an observed NAUC >170% of positive control) | +++ (NAUC “+++” refers to an observed NAUC >170% of positive control)
O=C1C2C3C[C@H](O)CN3C3(C(=O)Nc4c(Cl)cc(Cl)cc43)C2C(=O)N1c1cc(C(F)(F)F)cc(C(F)(F)F)c1 (single isomer, unassigned) [Example 62] | ++ (NAUC “++” refers to an observed NAUC 170-140% of positive control) | ++ (NAUC “++” refers to an observed NAUC 170-140% of positive control)
O=C1C2C3CCCN3C3(C(=O)Nc4c(Cl)cc(Cl)cc43)C2C(=O)N1c1cc(Cl)cc(Cl)n1 (single isomer, unassigned) [Example 67] | +++ (NAUC “+++” refers to an observed NAUC >170% of positive control) | +++ (NAUC “+++” refers to an observed NAUC >170% of positive control)
[2H]C12C(=O)N(c3cc(Cl)cc(Cl)c3)C(=O)C1([2H])C1(C(=O)Nc3c(Cl)cc(Cl)cc31)N1CCCC12 (single isomer, unassigned) [Example 70] | +++ (NAUC “+++” refers to an observed NAUC >170% of positive control) | +++ (NAUC “+++” refers to an observed NAUC >170% of positive control)
CC1CC2C3C(=O)N(c4cc(Cl)cc(Cl)c4)C(=O)C3C3(C(=O)Nc4c(Cl)cc(Cl)cc43)N2C1 (single isomer, unassigned) [Example 72] | +++ (NAUC “+++” refers to an observed NAUC >170% of positive control) | + (NAUC “+” refers to an observed NAUC <140% of positive control)
[2H]C12C(=O)N(c3cc(Cl)cc(Cl)c3)C(=O)C1([2H])C1(C(=O)Nc3c(Cl)cc(Cl)cc31)N1C[C@@H](O)CC12 (single isomer, unassigned) [Example 84] | ++ (NAUC “++” refers to an observed NAUC 170-140% of positive control) | ++ (NAUC “++” refers to an observed NAUC 170-140% of positive control)
O=C1C2C3C[C@H](Cl)CN3C3(C(=O)Nc4c(Cl)cc(Cl)cc43)C2C(=O)N1c1cc(Cl)cc(Cl)c1 (single isomer, unassigned) [Example 86] | + (NAUC “+” refers to an observed NAUC <140% of positive control) | +++ (NAUC “+++” refers to an observed NAUC >170% of positive control)
O=C1C2C3C[C@H](Cl)CN3C3(C(=O)Nc4c(Cl)cc(Cl)cc43)C2C(=O)N1c1cc(Cl)cc(Cl)c1 (single isomer, unassigned) [Example 87] | +++ (NAUC “+++” refers to an observed NAUC >170% of positive control) | +++ (NAUC “+++” refers to an observed NAUC >170% of positive control)
O=C1C2C3C[C@H](Cl)CN3C3(C(=O)Nc4c(Cl)cc(Cl)cc43)C2C(=O)N1c1cc(Cl)cc(Cl)c1 (single isomer, unassigned) [Example 88] | + (NAUC “+” refers to an observed NAUC <140% of positive control) | +++ (NAUC “+++” refers to an observed NAUC >170% of positive control)
COc1cc(Cl)cc(N2C(=O)C3C4CCCN4C4(C(=O)Nc5c(Cl)cc(Cl)cc54)C3C2=O)c1 (single isomer, unassigned) [Example 104] | + (NAUC “+” refers to an observed NAUC <140% of positive control) | ++ (NAUC “++” refers to an observed NAUC 170-140% of positive control)
COc1cc(Cl)cc(N2C(=O)C3C4CCCN4C4(C(=O)Nc5c(Cl)cc(Cl)cc54)C3C2=O)c1 (single isomer, unassigned) [Example 105] | ++ (NAUC “++” refers to an observed NAUC 170-140% of positive control) | ++ (NAUC “++” refers to an observed NAUC 170-140% of positive control)
COc1cc(Cl)cc(N2C(=O)C3C4CCCN4C4(C(=O)Nc5c(Cl)cc(Cl)cc54)C3C2=O)c1 (single isomer, unassigned) [Example 106] | +++ (NAUC “+++” refers to an observed NAUC >170% of positive control) | +++ (NAUC “+++” refers to an observed NAUC >170% of positive control)
COc1cc(Cl)cc(N2C(=O)C3C4C[C@H](Cl)CN4C4(C(=O)Nc5c(Cl)cc(Cl)cc54)C3C2=O)c1 (single isomer, unassigned) [Example 107] | +++ (NAUC “+++” refers to an observed NAUC >170% of positive control) | +++ (NAUC “+++” refers to an observed NAUC >170% of positive control)
O=C1C2C3C[C@H](Cl)CN3C3(C(=O)Nc4c(Cl)cc(Cl)cc43)C2C(=O)N1c1cc(Cl)cc(Cl)n1 (single isomer, unassigned) [Example 108] | +++ (NAUC “+++” refers to an observed NAUC >170% of positive control) | ++ (NAUC “++” refers to an observed NAUC 170-140% of positive control)
COc1cc(Cl)cc(N2C(=O)C3C4C[C@H](F)CN4C4(C(=O)Nc5c(Cl)cc(Cl)cc54)C3C2=O)c1 (single isomer, unassigned) [Example 110] | +++ (NAUC “+++” refers to an observed NAUC >170% of positive control) | +++ (NAUC “+++” refers to an observed NAUC >170% of positive control)

Source: patent publication US10072017B2, “Compounds and methods for the treatment of cystic fibrosis” (Flatley Discovery Lab, LLC, priority 2015, dated 2018)
